The values below come from US20050147670A1, “Oral disintegrating dosage forms” (IMPAX Laboratories Inc., priority 2002, published 2005).

The nature of series [1]: Bioavailability study of 25/250 mg orally disintegrating tablets in healthy adult volunteers, fasting. Type of series: in vivo. The settings on record: human, oral, Mean ± SD, 25/250 mg ODT, 36 healthy adult volunteers, plasma; for AUC(0-inf): read-out: AUCinf_obs.
The conditions of series [2]: combination of carbidopa and levodopa, no entacapone; cited from earlier work.

For the compound `C[C@@](Cc1ccc(O)c(O)c1)(NN)C(=O)O` [Carbidopa], in series [1], the peak concentration (Cmax) was 98.5 ± 38.3 ng/mL, the Tmax was determined as 2.8 ± 1 h and the AUC(0-inf) worked out at 560 ± 197 ng·h/mL.

For `N[C@@H](Cc1ccc(O)c(O)c1)C(=O)O` [Levodopa, (−)-L-α-amino-β-(3,4-dihydroxybenzene) propanoic acid monohydrate], in series [1], the peak level (Cmax) was 1470 ± 567 ng/mL, the time of peak concentration (Tmax) came out at 1.7 ± 0.8 h and the AUC(0-inf) was 4480 ± 1580 ng·h/mL. The “levodopa half-life without entacapone” value in series [2] is 1.3 h.

Usually Cmax stands for the maximum level reached in the sampled fluid or tissue. One may read the Tmax as the time from dosing to the highest level.
